# Assay results published in ChEMBL document CHEMBL1126431, “The effect of N-acyl substituents on the stability of monocyclic -lactam inhibitors of human leukocyte elastase” (Bioorg Med Chem Lett, 1992).
# Legend:
# [1] = molecular target: T1, Neutrophil elastase (Homo sapiens) (UniProt P08246); assay: Human leukocyte elastase (HLE) inhibitory activity is reported as kinetic constant (kobs/[I] - time dependent inhibition)
# T1 sequence (whole entry): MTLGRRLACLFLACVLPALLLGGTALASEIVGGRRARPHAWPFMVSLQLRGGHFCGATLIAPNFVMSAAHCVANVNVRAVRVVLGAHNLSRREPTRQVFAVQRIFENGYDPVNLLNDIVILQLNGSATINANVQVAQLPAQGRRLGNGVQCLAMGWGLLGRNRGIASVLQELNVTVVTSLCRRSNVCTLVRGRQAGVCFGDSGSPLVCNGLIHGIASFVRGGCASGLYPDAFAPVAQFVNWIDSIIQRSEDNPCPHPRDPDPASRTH
# [2] = Half-life period was determined, by hydrolyzing under mild conditions (pH = 8.0, 25 degrees Celsius); assay type: ADME
# Neutrophil elastase = molecular target: T2, Neutrophil elastase (Homo sapiens, UniProt P08246); assay: Concentration required for inhibition of human leukocyte elastase (HLE)
# T2 sequence (P08246 whole entry): T1 sequence (whole entry)
k obs / 1 [1],half-life [2],Ki (Neutrophil elastase),SMILES
6680 M⁻¹ s⁻¹,~9 h,,CC[C@@H]1C(=O)N(C(C)=O)[C@H]1Oc1ccc(C(=O)O)cc1
,~32 h,290 µM,CC[C@@H]1C(=O)N[C@H]1Oc1ccc(C(=O)O)cc1
,,16.5 µM,CC[C@@H]1C(=O)N(C(=O)NC)[C@H]1Oc1ccc(C(=O)O)cc1

# Further lines, the compound ahead of its results:
SMILES,k obs / 1 [1],half-life [2],Ki (Neutrophil elastase)
CCOC(=O)N1C(=O)[C@@H](CC)[C@@H]1Oc1ccc(C(=O)O)cc1,6350 M⁻¹ s⁻¹,,
CC[C@@H]1C(=O)N(C(=O)NCc2ccccc2)[C@H]1Oc1ccc(C(=O)O)cc1,2480 M⁻¹ s⁻¹,,
CC[C@@H]1C(=O)N(C(C)=O)[C@H]1OC(C)=O (racemic),,~2 h,
